This assay concerns the target interleukin-1 receptor-associated kinase 4 (IRAK4) (Homo sapiens, UniProt Q9NWZ3). As to the kind of experiment: biochemical.

The structures appear in SMILES notation.

Chain of interleukin-1 receptor-associated kinase 4 (IRAK4) (Q9NWZ3 whole entry): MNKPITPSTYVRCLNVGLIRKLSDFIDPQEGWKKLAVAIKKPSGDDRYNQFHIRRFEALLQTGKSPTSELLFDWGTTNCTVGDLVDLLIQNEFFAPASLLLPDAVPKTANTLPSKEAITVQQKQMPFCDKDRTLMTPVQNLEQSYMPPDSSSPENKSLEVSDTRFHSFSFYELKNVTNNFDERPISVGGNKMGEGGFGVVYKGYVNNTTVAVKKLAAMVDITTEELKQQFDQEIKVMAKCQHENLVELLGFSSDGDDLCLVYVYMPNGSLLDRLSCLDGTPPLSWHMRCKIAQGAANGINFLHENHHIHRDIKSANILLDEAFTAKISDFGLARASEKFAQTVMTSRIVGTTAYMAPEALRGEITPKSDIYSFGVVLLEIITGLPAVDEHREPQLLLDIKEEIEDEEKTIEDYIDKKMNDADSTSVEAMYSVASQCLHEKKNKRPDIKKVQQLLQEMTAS

By Kd is commonly meant the free concentration of one partner at which half of the binding sites on the other are occupied at equilibrium, for simple one-to-one binding. Higher therefore signals a looser complex. For the compound `CN(C)C` [TMA, trimethylamine], the dissociation constant (Kd) amounted to 14 nM.
